Data: patent publication US8952024B2, “Herbicidal pyrimidone derivatives” (E I du Pont de Nemours and Company, priority 2009, dated 2015)

Assays:
Format in all cases: in vivo
[1] = tested on: rice (Oryza sativa); test: Test B flooded paddy test; conditions: for Plant response rating, Flood, Rice: 250 g ai/ha, flooded paddy test, visual rating on 0 to 100 scale (0 no effect, 100 complete control) after 13 to 15 days; for Plant response rating, Rice: Flood (flooded paddy test), 13 to 15 days; for Rice plant response rating: Flood, 31 g ai/ha, scale 0 to 100 (0 no effect, 100 complete control)
Outline: (§1)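 2-leaf seedlings; pots flooded 3 cm over soil at treatment; cpd dosed into floodwater, depth kept constant. Greenhouse 13–15 d. Visual rating vs untreated controls, 0 = no effect, 100 = complete control.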

[2] = tested on: umbrella sedge (Cyperus difformis); test: Test B flooded paddy test; conditions: for Plant response rating, Flood, Sedge, Umbrella: 250 g ai/ha, flooded paddy test, visual rating on 0 to 100 scale (0 no effect, 100 complete control) after 13 to 15 days; for Plant response rating, Sedge, Umbrella: Flood (flooded paddy test), 13 to 15 days; for Sedge, Umbrella plant response rating: Flood, 31 g ai/ha, scale 0 to 100 (0 no effect, 100 complete control)
Outline: as §1

[3] = tested on: barnyardgrass (Echinochloa crus-galli); test: Test B flooded paddy test; conditions: for Plant response rating, Flood, Barnyardgrass: 250 g ai/ha, flooded paddy test, visual rating on 0 to 100 scale (0 no effect, 100 complete control) after 13 to 15 days; for Plant response rating, Barnyardgrass: Flood (flooded paddy test), 13 to 15 days; for Barnyardgrass plant response rating: Flood, 31 g ai/ha, scale 0 to 100 (0 no effect, 100 complete control)
Outline: as §1

[4] = tested on: ducksalad (Heteranthera limosa); test: Test B flooded paddy test; conditions: for Plant response rating, Flood, Ducksalad: 250 g ai/ha, flooded paddy test, visual rating on 0 to 100 scale (0 no effect, 100 complete control) after 13 to 15 days; for Plant response rating, Ducksalad: Flood (flooded paddy test), 13 to 15 days; for Ducksalad plant response rating: Flood, 31 g ai/ha, scale 0 to 100 (0 no effect, 100 complete control)
Outline: as §1

[5] = tested on: velvetleaf (Abutilon theophrasti); test: Test A pre-/postemergence plant response; conditions: for Velvetleaf plant response rating: visual injury, 0 to 100 scale (0 no effect, 100 complete control), approx. ten days
Outline: (§2)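 Visually rated 0–100 injury (100 = complete control) versus untreated plants, ~10 days in greenhouse. Application pre- (soil spray, loam/sand) and postemergence (2–10 cm, 1–2 leaf stage), same timepoint.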

[6] = tested on: pigweed (Amaranthus retroflexus); test: Test A pre-/postemergence plant response; conditions: for Pigweed plant response rating: visual injury, 0 to 100 scale (0 no effect, 100 complete control), approx. ten days
Outline: as §2

[7] = tested on: wheat (Triticum aestivum); test: Test A pre-/postemergence plant response; conditions: for Wheat plant response rating: visual injury, 0 to 100 scale (0 no effect, 100 complete control), approx. ten days
Outline: as §2

[8] = tested on: corn (Zea mays); test: Test A pre-/postemergence plant response; conditions: for Corn plant response rating: visual injury, 0 to 100 scale (0 no effect, 100 complete control), approx. ten days
Outline: as §2

[9] = tested on: large crabgrass (Digitaria sanguinalis); test: Test A pre-/postemergence plant response; conditions: for Crabgrass, Large plant response rating: visual injury, 0 to 100 scale (0 no effect, 100 complete control), approx. ten days
Outline: as §2

[10] = tested on: morningglory (Ipomoea spp.); test: Test A pre-/postemergence plant response; conditions: for Morningglory plant response rating: visual injury, 0 to 100 scale (0 no effect, 100 complete control), approx. ten days
Outline: as §2

[11] = tested on: giant foxtail (Setaria faberii); test: Test A pre-/postemergence plant response; conditions: for Foxtail, Giant plant response rating: visual injury, 0 to 100 scale (0 no effect, 100 complete control), approx. ten days
Outline: as §2

[12] = tested on: barnyardgrass (Echinochloa crus-galli); test: Test A pre-/postemergence plant response; conditions: for Barnyardgrass plant response rating: visual injury, 0 to 100 scale (0 no effect, 100 complete control), approx. ten days
Outline: as §2

[13] = 62 g ai/ha, scale of 0 to 100 where 0 is no effect and 100 is complete control
[14] = 125 g ai/ha, scale 0 to 100, 0 is no effect, 100 is complete control
[15] = Postemergence, 125 g ai/ha, 0 to 100 scale where 0 is no effect and 100 is complete control
[16] = Preemergence, 125 g ai/ha, 0 to 100 scale, 0 = no effect, 100 = complete control
[17] = Preemergence, 500 g ai/ha, 0 to 100 scale, 0 = no effect, 100 = complete control

Cc1cccc(-c2ncc(C(=O)C3=C(O)CCCC3=O)c(=O)n2-c2ccc(F)cc2C)c1 [Compound 192]
Plant response rating, Flood, Rice [1]: 20 | Plant response rating, Rice [1, 13]: 0 | Plant response rating, Rice [1, 14]: 0 | Rice plant response rating [1]: 0 | Plant response rating, Flood, Sedge, Umbrella [2]: 60 | Plant response rating, Sedge, Umbrella [2, 13]: 40 | Plant response rating, Sedge, Umbrella [2, 14]: 50 | Sedge, Umbrella plant response rating [2]: 0 | Plant response rating, Flood, Barnyardgrass [3]: 0 | Plant response rating, Barnyardgrass [3, 13]: 0 | Plant response rating, Barnyardgrass [3, 14]: 0 | Barnyardgrass plant response rating [3]: 0 | Plant response rating, Flood, Ducksalad [4]: 75 | Plant response rating, Ducksalad [4, 13]: 60 | Plant response rating, Ducksalad [4, 14]: 75 | Ducksalad plant response rating [4]: 60 | Plant response rating, Velvetleaf [5, 15]: 70 | Velvetleaf plant response rating ([5]; Postemergence, 500 g ai/ha): 100 | Plant response rating, Velvetleaf [5, 16]: 0 | Plant response rating, Velvetleaf [5, 17]: 60 | Plant response rating, Pigweed [6, 15]: 60 | Pigweed plant response rating ([6]; Postemergence, 500 g ai/ha): 80 | Plant response rating, Pigweed [6, 16]: 0 | Plant response rating, Pigweed [6, 17]: 50 | Plant response rating, Wheat [7, 15]: 0 | Wheat plant response rating ([7]; Postemergence, 500 g ai/ha): 0 | Plant response rating, Wheat [7, 16]: 0 | Plant response rating, Wheat [7, 17]: 20 | Plant response rating, Corn [8, 15]: 0 | Corn plant response rating ([8]; Postemergence, 500 g ai/ha): 40 | Plant response rating, Corn [8, 16]: 40 | Plant response rating, Corn [8, 17]: 40 | Plant response rating, Crabgrass, Large [9, 15]: 30 | Crabgrass, Large plant response rating ([9]; Postemergence, 500 g ai/ha): 80 | Plant response rating, Crabgrass, Large [9, 16]: 10 | Plant response rating, Crabgrass, Large [9, 17]: 40 | Morningglory plant response rating ([10]; Postemergence, 500 g ai/ha): 70 | Plant response rating, Morningglory [10, 16]: 0 | Plant response rating, Morningglory [10, 17]: 0 | Plant response rating, Foxtail, Giant [11, 15]: 50 | Foxtail, Giant plant response rating ([11]; Postemergence, 500 g ai/ha): 70 | Plant response rating, Foxtail, Giant [11, 16]: 0 | Plant response rating, Foxtail, Giant [11, 17]: 40 | Plant response rating, Barnyardgrass [12, 15]: 60 | Barnyardgrass plant response rating ([12]; Postemergence, 500 g ai/ha): 90 | Plant response rating, Barnyardgrass [12, 16]: 10 | Plant response rating, Barnyardgrass [12, 17]: 30

COc1cccc(-c2ncc(C(=O)C3=C(O)CCCC3=O)c(=O)n2C2CCCCC2)c1 [Compound 196]
Plant response rating, Flood, Rice [1]: 65 | Plant response rating, Rice [1, 13]: 0 | Plant response rating, Rice [1, 14]: 40 | Rice plant response rating [1]: 0 | Plant response rating, Flood, Sedge, Umbrella [2]: 80 | Plant response rating, Sedge, Umbrella [2, 13]: 30 | Plant response rating, Sedge, Umbrella [2, 14]: 75 | Sedge, Umbrella plant response rating [2]: 20 | Plant response rating, Flood, Barnyardgrass [3]: 30 | Plant response rating, Barnyardgrass [3, 13]: 0 | Plant response rating, Barnyardgrass [3, 14]: 20 | Barnyardgrass plant response rating [3]: 0 | Plant response rating, Flood, Ducksalad [4]: 95 | Plant response rating, Ducksalad [4, 13]: 60 | Plant response rating, Ducksalad [4, 14]: 95 | Ducksalad plant response rating [4]: 40 | Plant response rating, Velvetleaf [5, 15]: 100 | Velvetleaf plant response rating ([5]; Postemergence, 500 g ai/ha): 100 | Plant response rating, Velvetleaf [5, 16]: 0 | Plant response rating, Velvetleaf [5, 17]: 50 | Plant response rating, Pigweed [6, 15]: 80 | Pigweed plant response rating ([6]; Postemergence, 500 g ai/ha): 100 | Plant response rating, Pigweed [6, 16]: 0 | Plant response rating, Pigweed [6, 17]: 30 | Plant response rating, Wheat [7, 15]: 0 | Wheat plant response rating ([7]; Postemergence, 500 g ai/ha): 30 | Plant response rating, Wheat [7, 16]: 0 | Plant response rating, Wheat [7, 17]: 20 | Plant response rating, Corn [8, 15]: 10 | Corn plant response rating ([8]; Postemergence, 500 g ai/ha): 40 | Plant response rating, Corn [8, 16]: 0 | Plant response rating, Corn [8, 17]: 20 | Plant response rating, Crabgrass, Large [9, 15]: 50 | Crabgrass, Large plant response rating ([9]; Postemergence, 500 g ai/ha): 90 | Plant response rating, Crabgrass, Large [9, 16]: 0 | Plant response rating, Crabgrass, Large [9, 17]: 70 | Plant response rating, Morningglory [10, 15]: 100 | Morningglory plant response rating ([10]; Postemergence, 500 g ai/ha): 100 | Plant response rating, Morningglory [10, 16]: 0 | Plant response rating, Morningglory [10, 17]: 40 | Plant response rating, Foxtail, Giant [11, 15]: 70 | Foxtail, Giant plant response rating ([11]; Postemergence, 500 g ai/ha): 100 | Plant response rating, Foxtail, Giant [11, 16]: 0 | Plant response rating, Foxtail, Giant [11, 17]: 80 | Plant response rating, Barnyardgrass [12, 15]: 80 | Barnyardgrass plant response rating ([12]; Postemergence, 500 g ai/ha): 90 | Plant response rating, Barnyardgrass [12, 16]: 0 | Plant response rating, Barnyardgrass [12, 17]: 50
